For one data set, the system named is THP1-defNLRP3 cells. Kind of data set: Agonistic effect on the expression of IL-1β in NLRP3 deficient THP1 cells (THP1-defNLRP3) after PMA-induced differentiation (HTRF). In kind it is cell-based, human. The conditions noted are these: Homo sapiens, THP-1; IL-1β level, PMA-differentiated NLRP3 deficient THP1 cells, 6 hours; highest test concentration 30 μM; read-out: hNLRP3 EC50 (μM) (THP-1defNLRP3). In short, it runs like this:
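PMA-differentiated (1 μM, 24 h) NLRP3-deficient THP1 macrophages, 1×10^5 cells/well in RPMI 1640 with 2% heat-inactivated FBS, treated with compound for 6 h at 37 °C. Supernatant IL-1β measured by HTRF. EC50 from four-parameter variable-slope fit.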
(TR-FRET usually uses a lanthanide donor and a delayed reading to cut background.)

The target of another data set is T1, hTLR8 (Homo sapiens, UniProt Q9NR97).
T1 construct: host or cells: HEK-Blue hTLR8 cells
T1 sequence (Q9NR97 27-1041): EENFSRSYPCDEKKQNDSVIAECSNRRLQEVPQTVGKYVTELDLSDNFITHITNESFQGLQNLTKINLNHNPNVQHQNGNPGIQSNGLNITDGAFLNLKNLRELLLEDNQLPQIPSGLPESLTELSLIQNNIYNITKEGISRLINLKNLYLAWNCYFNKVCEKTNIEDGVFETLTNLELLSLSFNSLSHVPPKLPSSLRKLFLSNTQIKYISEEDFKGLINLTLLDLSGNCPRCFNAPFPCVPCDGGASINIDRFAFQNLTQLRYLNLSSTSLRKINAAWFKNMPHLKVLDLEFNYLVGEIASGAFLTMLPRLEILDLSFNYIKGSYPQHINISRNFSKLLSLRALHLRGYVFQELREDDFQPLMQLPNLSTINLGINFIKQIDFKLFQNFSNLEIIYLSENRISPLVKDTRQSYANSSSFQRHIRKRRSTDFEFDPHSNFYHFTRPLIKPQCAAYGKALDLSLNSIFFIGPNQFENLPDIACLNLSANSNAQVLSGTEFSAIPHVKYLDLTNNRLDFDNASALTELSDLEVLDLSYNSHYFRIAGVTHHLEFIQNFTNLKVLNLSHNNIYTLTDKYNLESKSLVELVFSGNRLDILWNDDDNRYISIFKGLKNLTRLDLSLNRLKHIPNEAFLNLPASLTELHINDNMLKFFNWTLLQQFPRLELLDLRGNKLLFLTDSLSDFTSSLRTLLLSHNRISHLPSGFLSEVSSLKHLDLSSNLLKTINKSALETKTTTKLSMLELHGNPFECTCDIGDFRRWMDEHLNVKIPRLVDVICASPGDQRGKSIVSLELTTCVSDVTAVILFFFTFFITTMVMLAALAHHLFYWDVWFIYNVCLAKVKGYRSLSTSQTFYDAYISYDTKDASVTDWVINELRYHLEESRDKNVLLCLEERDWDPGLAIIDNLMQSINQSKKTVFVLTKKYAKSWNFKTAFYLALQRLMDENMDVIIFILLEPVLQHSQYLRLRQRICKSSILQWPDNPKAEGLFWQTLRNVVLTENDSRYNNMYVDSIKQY
In words: Agonistic effect on hTLR8, HEK-Blue hTLR8 cells, alkaline phosphatase secretion. As to conditions: 16 hours. Type of data set: cell-based. In short, it runs like this: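 HEK-Blue hTLR8 reporter cells were treated with compound (diluted from 10 mM DMSO stock) for 16 h at 37 °C in DMEM/10% FBS. Secreted alkaline phosphatase in supernatant was detected with QUANTI-Blue after 3 h at 37 °C, read at OD620. EC50 came from a four-parameter variable-slope fit.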

For the next data set, the target named is hERG potassium channel (Homo sapiens, UniProt Q12809).
hERG potassium channel, sequence (Q12809 whole entry): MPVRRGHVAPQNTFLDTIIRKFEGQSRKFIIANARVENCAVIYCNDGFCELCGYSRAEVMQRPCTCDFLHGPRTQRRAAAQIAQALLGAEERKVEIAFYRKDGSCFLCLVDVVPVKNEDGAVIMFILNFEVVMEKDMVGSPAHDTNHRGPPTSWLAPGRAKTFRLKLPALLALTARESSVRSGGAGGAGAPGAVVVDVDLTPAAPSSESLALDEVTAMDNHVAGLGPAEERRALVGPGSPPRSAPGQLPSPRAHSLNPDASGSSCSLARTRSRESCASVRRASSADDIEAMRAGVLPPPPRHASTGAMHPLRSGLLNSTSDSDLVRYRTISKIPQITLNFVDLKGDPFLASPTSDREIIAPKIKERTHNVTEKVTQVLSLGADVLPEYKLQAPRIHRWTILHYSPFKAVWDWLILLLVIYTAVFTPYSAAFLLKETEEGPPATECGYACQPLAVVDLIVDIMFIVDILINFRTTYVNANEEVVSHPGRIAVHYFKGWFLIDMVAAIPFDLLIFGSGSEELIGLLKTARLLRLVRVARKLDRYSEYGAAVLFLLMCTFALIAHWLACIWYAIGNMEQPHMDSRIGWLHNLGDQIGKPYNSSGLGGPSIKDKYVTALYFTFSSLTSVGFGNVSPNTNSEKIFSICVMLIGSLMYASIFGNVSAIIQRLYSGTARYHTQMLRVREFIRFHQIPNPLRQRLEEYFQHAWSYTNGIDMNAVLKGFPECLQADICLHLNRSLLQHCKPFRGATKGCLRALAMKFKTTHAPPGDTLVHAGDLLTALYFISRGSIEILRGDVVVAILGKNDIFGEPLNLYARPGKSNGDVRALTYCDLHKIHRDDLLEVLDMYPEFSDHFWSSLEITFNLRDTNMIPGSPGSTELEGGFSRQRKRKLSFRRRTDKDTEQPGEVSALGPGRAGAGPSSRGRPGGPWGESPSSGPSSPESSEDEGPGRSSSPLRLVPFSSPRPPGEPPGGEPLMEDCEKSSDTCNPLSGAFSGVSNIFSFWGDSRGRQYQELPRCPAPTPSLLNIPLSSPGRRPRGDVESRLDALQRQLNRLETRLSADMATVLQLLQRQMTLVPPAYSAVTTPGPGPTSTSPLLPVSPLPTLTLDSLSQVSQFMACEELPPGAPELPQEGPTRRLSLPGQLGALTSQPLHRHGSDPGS

The values that follow come from US20220056043A1, “NITROGEN-CONTAINING FUSED CYCLIC COMPOUND, PREPARATION METHOD THEREFOR AND USE THEREOF” (SICHUAN KELUN-BIOTECH BIOPHARMACEUTICAL CO., LTD., priority 2019, published 2022).

The structures appear in SMILES notation. A value given as a limit tells only on which side of the number the result lay.

For the compound `CC(C)(CO)CNc1cc(N)nc2cc(-c3ccn[nH]3)sc12` [Compound 115, 3-((5-amino-2-(1H-pyrazol-5-yl)thieno[3,2-b]pyridin-7-yl)amino)-2,2-dimethyl-1-propanol], the EC50 – broadly, the concentration needed to bring the measured effect to its halfway point – with THP1-defNLRP3 cells was above 30 µM; on hTLR8, above 100 µM. Further, at hERG potassium channel, the “inhibitory effect on hERG” value is reported as “no apparent inhibitory effect”.
Regarding `Nc1cc(NCC(F)F)c2sc(-c3ccn[nH]3)cc2n1` [Compound 116, N^7-(2,2-difluoroethyl)-2-(1H-pyrazol-5-yl)thieno[3,2-b]pyridine-5,7-diamine], the figures for the EC50 in the data set with THP1-defNLRP3 cells and at hTLR8 were above 30 µM and above 100 µM, respectively. Also, the “inhibitory effect on hERG” value against hERG potassium channel is listed as “no apparent inhibitory effect”.
As to `Nc1cc(NCC2CCOCC2)c2sc(-c3ccn[nH]3)cc2n1` [Compound 120, 2-(1H-pyrazol-5-yl)-N^7-((tetrahydro-2H-pyran-4-yl)methyl)thieno[3,2-b]pyridine-5,7-diamine], the EC50 with THP1-defNLRP3 cells is above 30 µM; at hTLR8 it was above 100 µM. Moreover, the “inhibitory effect on hERG” value against hERG potassium channel is on record as “no apparent inhibitory effect”.
